Several values for one entry are separate records, joined by “and”; a condition that tells them apart may be missing. Identical values can stand only once. Toxic doses and inconclusive results are not listed. Cut-off read from the data, not from the text of the source: active = T/C of 150% or more; inactive = T/C below 125%.
System: L1210 leukemia ip in BDF1 mice, survival T/C
Assay: NCI In Vivo Anticancer Drug Screen. Data for tumor model L1210 Leukemia (intraperitoneal) in B6D2F1 (BDF1) mice
Conditions: endpoint: mean survival time, higher = longer survival
Summary of the method: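 Read-out is survival time, reported as the treated-group measurement over the vehicle-control measurement.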

[1] = dose: 100.0 mg/kg/injection, schedule: Q04DX003 (ip), vehicle: Klucel (hydroxypropylcellulose) (HPC)
[2] = dose: 200.0 mg/kg/injection, schedule: Q04DX003 (ip), vehicle: Klucel (hydroxypropylcellulose) (HPC)
[3] = dose: 400.0 mg/kg/injection, schedule: Q04DX003 (ip), vehicle: Klucel (hydroxypropylcellulose) (HPC)
[4] = dose: 100.0 mg/kg/injection, schedule: Q01DX001 (ip), vehicle: carboxymethylcellulose (CMC)
[5] = dose: 200.0 mg/kg/injection, schedule: Q01DX001 (ip), vehicle: carboxymethylcellulose (CMC)
[6] = dose: 400.0 mg/kg/injection, schedule: Q01DX001 (ip), vehicle: carboxymethylcellulose (CMC)
[7] = dose: 100.0 mg/kg/injection, schedule: Q04DX003 (ip), vehicle: saline with Tween-80
[8] = dose: 200.0 mg/kg/injection, schedule: Q04DX003 (ip), vehicle: saline with Tween-80
[9] = dose: 400.0 mg/kg/injection, schedule: Q04DX003 (ip), vehicle: saline with Tween-80
[10] = dose: 50.0 mg/kg/injection, schedule: Q01DX001 (ip), vehicle: carboxymethylcellulose (CMC)
[11] = dose: 50.0 mg/kg/injection, schedule: Q01DX009 (ip), vehicle: saline with Tween-80
[12] = dose: 100.0 mg/kg/injection, schedule: Q01DX009 (ip), vehicle: saline with Tween-80
[13] = dose: 200.0 mg/kg/injection, schedule: Q01DX009 (ip), vehicle: saline with Tween-80
[14] = dose: 400.0 mg/kg/injection, schedule: Q01DX009 (ip), vehicle: saline with Tween-80

Measured: T/C

CN(Cc1c(S)ccc2ccccc12)Cc1c(S)ccc2ccccc12
inactive: dose: 100.0 mg/kg/injection, schedule: Q01DX001 (ip), vehicle: saline 94 % of control | dose: 200.0 mg/kg/injection, schedule: Q01DX001 (ip), vehicle: saline 98 % of control | dose: 400.0 mg/kg/injection, schedule: Q01DX001 (ip), vehicle: saline 96 % of control

NC(CSS(=O)(=O)O)=NCCC1=NCCN1
inactive: dose: 25.0 mg/kg/injection, schedule: Q04DX002 (ip), vehicle: saline 101 % of control | dose: 50.0 mg/kg/injection, schedule: Q04DX002 (ip), vehicle: saline 101 % of control | dose: 100.0 mg/kg/injection, schedule: Q04DX002 (ip), vehicle: saline 101 % of control | dose: 200.0 mg/kg/injection, schedule: Q04DX002 (ip), vehicle: saline 96 % of control and 107 % of control | dose: 400.0 mg/kg/injection, schedule: Q04DX002 (ip), vehicle: saline 115 % of control

CCCCC1C/C=C/C=C/C=C/C=C/C(OC2OC(C)C(O)C(N)C2O)CC2OC(O)(CC(O)CC3OC3/C=C/C(=O)O1)CC(O)C2C(=O)O (stereo unspecified)
inactive: [1] 96 % of control | [2] 98 % of control | [3] 107 % of control

CCn1c(=O)cn[nH]c1=O
inactive: dose: 50.0 mg/kg/injection, schedule: Q01DX009 (ip), vehicle: saline 97 % of control | dose: 100.0 mg/kg/injection, schedule: Q01DX009 (ip), vehicle: saline 97 % of control | dose: 200.0 mg/kg/injection, schedule: Q01DX009 (ip), vehicle: saline 94 % of control

CCCOc1ccc([N+](=O)[O-])cc1N
inactive: [4] 96 % of control | [5] 100 % of control | [6] 94 % of control

Nc1c(Br)cc(Br)c2ccccc12
inactive: dose: 100.0 mg/kg/injection, schedule: Q01DX009 (ip), vehicle: acetone 93 % of control | [7] 97 % of control | dose: 200.0 mg/kg/injection, schedule: Q01DX009 (ip), vehicle: acetone 91 % of control | [8] 92 % of control | dose: 400.0 mg/kg/injection, schedule: Q01DX009 (ip), vehicle: acetone 93 % of control | [9] 97 % of control

NC(CSC(c1ccccc1)(c1ccccc1)c1ccc(O)cc1)C(=O)O (stereo unspecified)
inactive: dose: 6.25 mg/kg/injection, schedule: Q01DX009 (ip), vehicle: saline 111 % of control | dose: 12.5 mg/kg/injection, schedule: Q01DX009 (ip), vehicle: saline 105 % of control | dose: 25.0 mg/kg/injection, schedule: Q01DX009 (ip), vehicle: saline 116 % of control | dose: 75.0 mg/kg/injection, schedule: Q01DX001 (ip), vehicle: other 104 % of control | dose: 150.0 mg/kg/injection, schedule: Q01DX001 (ip), vehicle: other 109 % of control

CC(C)C[CH2][Pb]([CH2]CC(C)C)([CH2]CC(C)C)[O]C(=O)C(Cl)(Cl)Cl
inactive: dose: 3.12 mg/kg/injection, schedule: Q01DX009 (ip), vehicle: Klucel (hydroxypropylcellulose) (HPC) 98 % of control | dose: 3.12 mg/kg/injection, schedule: Q04DX002 (ip), vehicle: Klucel (hydroxypropylcellulose) (HPC) 96 % of control | dose: 6.25 mg/kg/injection, schedule: Q01DX009 (ip), vehicle: Klucel (hydroxypropylcellulose) (HPC) 95 % of control | dose: 6.25 mg/kg/injection, schedule: Q04DX002 (ip), vehicle: Klucel (hydroxypropylcellulose) (HPC) 115 % of control | dose: 12.5 mg/kg/injection, schedule: Q01DX009 (ip), vehicle: Klucel (hydroxypropylcellulose) (HPC) 98 % of control | dose: 12.5 mg/kg/injection, schedule: Q04DX002 (ip), vehicle: Klucel (hydroxypropylcellulose) (HPC) 93 % of control and 87 % of control

Nc1ccccc1SC1CC(=O)N(c2ccc(F)cc2)C1=O (stereo unspecified)
inactive: dose: 100.0 mg/kg/injection, schedule: Q04DX003 (ip), vehicle: carboxymethylcellulose (CMC) 92 % of control | dose: 200.0 mg/kg/injection, schedule: Q04DX003 (ip), vehicle: carboxymethylcellulose (CMC) 92 % of control | dose: 400.0 mg/kg/injection, schedule: Q04DX003 (ip), vehicle: carboxymethylcellulose (CMC) 91 % of control

CC1CC=CCC1COC(OCC1CC=CCC1C)C1CC=CCC1C (stereo unspecified)
inactive: dose: 100.0 mg/kg/injection, schedule: Q01DX009 (ip), vehicle: other 93 % of control | dose: 100.0 mg/kg/injection, schedule: Q04DX003 (ip), vehicle: other 100 % of control | dose: 200.0 mg/kg/injection, schedule: Q01DX009 (ip), vehicle: other 98 % of control | dose: 200.0 mg/kg/injection, schedule: Q04DX003 (ip), vehicle: other 98 % of control | dose: 400.0 mg/kg/injection, schedule: Q01DX009 (ip), vehicle: other 93 % of control | dose: 400.0 mg/kg/injection, schedule: Q04DX003 (ip), vehicle: other 96 % of control

CSCCNC(=O)NS(=O)(=O)c1ccc(C)cc1
inactive: [7] 96 % of control | [8] 97 % of control | [9] 97 % of control

Nc1ncnc2c1ncn2C1CC(O)C(CO)O1 (stereo unspecified)
inactive: [7] 101 % of control | dose: 100.0 mg/kg/injection, schedule: Q04DX003 (ip), vehicle: saline 98 % of control | [8] 98 % of control | dose: 200.0 mg/kg/injection, schedule: Q04DX003 (ip), vehicle: saline 104 % of control | [9] 98 % of control | dose: 400.0 mg/kg/injection, schedule: Q04DX003 (ip), vehicle: saline 93 % of control | dose: 440.0 mg/kg/injection, schedule: Q03HX024 (ip), vehicle: saline with Tween-80 105 % of control | dose: 660.0 mg/kg/injection, schedule: Q03HX024 (ip), vehicle: saline with Tween-80 110 % of control | dose: 1000.0 mg/kg/injection, schedule: Q03HX024 (ip), vehicle: saline with Tween-80 104 % of control

Nc1cc(Cl)ccc1Nc1ccccc1
inactive: [10] 101 % of control | [4] 109 % of control | [5] 101 % of control | [6] 101 % of control

O=C(CNC(=O)c1ccc(Cl)cc1Cl)N/N=C/c1ccc(Cl)c(Cl)c1
inactive: dose: 25.0 mg/kg/injection, schedule: Q01DX009 (ip), vehicle: saline with Tween-80 95 % of control | [11] 91 % of control | [12] 88 % of control

Cc1ccc(C)c(NC(=O)Oc2ccc(Cl)cc2Cl)c1
inactive: dose: 25.0 mg/kg/injection, schedule: Q01DX009 (ip), vehicle: Klucel (hydroxypropylcellulose) (HPC) 87 % of control | dose: 50.0 mg/kg/injection, schedule: Q01DX009 (ip), vehicle: Klucel (hydroxypropylcellulose) (HPC) 100 % of control | dose: 100.0 mg/kg/injection, schedule: Q01DX009 (ip), vehicle: Klucel (hydroxypropylcellulose) (HPC) 110 % of control | [1] 90 % of control | [2] 94 % of control | [3] 106 % of control

CCOC(=O)c1ccc(NC(=O)Nc2ccc(OC)c([N+](=O)[O-])c2)cc1
inactive: [12] 95 % of control | [13] 90 % of control

N#CC(C#N)=Cc1ccnc2ccccc12
inactive: dose: 10.0 mg/kg/injection, schedule: Q01DX009 (ip), vehicle: saline with Tween-80 101 % of control | dose: 12.5 mg/kg/injection, schedule: Q04DX003 (ip), vehicle: saline with Tween-80 101 % of control | dose: 20.0 mg/kg/injection, schedule: Q01DX009 (ip), vehicle: saline with Tween-80 101 % of control | dose: 25.0 mg/kg/injection, schedule: Q04DX003 (ip), vehicle: saline with Tween-80 104 % of control | dose: 40.0 mg/kg/injection, schedule: Q01DX009 (ip), vehicle: saline with Tween-80 101 % of control | dose: 50.0 mg/kg/injection, schedule: Q04DX003 (ip), vehicle: saline with Tween-80 95 % of control | [7] 105 % of control

Cc1cccc(NCc2ccc(Cl)cc2Cl)c1
inactive: [11] 106 % of control | [12] 103 % of control | [7] 93 % of control and 88 % of control | [13] 98 % of control | [8] 95 % of control | [9] 96 % of control and 101 % of control

Cc1ccc(C)c(OCC(=O)O)c1
inactive: [1] 97 % of control | [2] 101 % of control | [3] 101 % of control

C=CCCCCCCCCC(=O)NCC1CCCCO1 (stereo unspecified)
inactive: [12] 94 % of control | [13] 97 % of control | [14] 101 % of control

CCN(C(=O)Nc1ccc(Cl)cc1)c1ccccc1C
inactive: [7] 91 % of control | [8] 93 % of control

O=C1C(c2ccccc2)=c2c(c3ccccc3c3ccccc23)=C1c1ccccc1
inactive: [10] 103 % of control and 100 % of control | [4] 100 % of control and 97 % of control | [12] 96 % of control | [5] 100 % of control and 97 % of control | [13] 90 % of control | [6] 94 % of control | [14] 93 % of control

Oc1ccccc1C=NCc1ccccc1
inactive: [1] 100 % of control | [2] 92 % of control | [3] 96 % of control
